A short description of data set [1]: Ability to cause gastro-intestinal erosion in rats. Set-up: species or system rat (male Lai:COX (SD)). Particulars: rat, in vivo. On the procedure:
Method: Test for Ability to Cause Gastro-Intestinal Erosion in Rats
Male Lai: COX (SD) rats weighing 200-250 g were acclimated for one week under standard laboratory conditions. Each animal was individually identified and body weights were determined on the first day of the test and again at autopsy. The test materials, suspended in aqueous carboxymethyl cellulose vehicle, were administered orally once daily in a volume of 1.0 ml per 100 g body weight for seven consecutive days. Food was withdrawn from the animals following the last dose and the animals were sacrificed 24 hours later. At necropsy, the stomach and intestines were removed and observed for lesions. […] The highest test dose level producing no detectable lesions is reported.

For data set [2], the system named is Carrageenan-induced paw edema in the rat. Briefly: Carrageenan-induced paw edema in rat. In kind it is in vivo, rat (female albino, Sim:(SD)fbr). Particulars: one hour prior to carrageenan. From the text: 1. Carrageenan-induced paw edema in the rat. […] A solution of carrageenan injected into the foot pad of a rat causes reddening, swelling and pain which is maximal three to six hours after administration and then resolves. […] Immuno-suppressive agents are not effective under these circumstances.
Carrageenan-induced Paw Edema in Rat
Method: Test for Determining Anti-Inflammatory Activity Utilizing Carrageenan-Induced Paw Inflammation in Rats
The method used was basically that of Winter, et al. (See, Winter, C.A., Risley, E.A., and Nuss, G.W.: Carrageenan-induced edema in hind paw of the rat as an assay for anti-inflammatory drugs, Proc. Soc. Exp. Biol. Med. 111:544-547, 1962.) Female albino rats (Sim: (SD)fbr) weighing 80-90 g received the test material p.o. in 1 ml aqueous vehicle at hour zero (0 hr). One hour later (hr 1), 0.05 ml of a 1% solution (in aqueous 0.9% NaCl) or carrageenan was injected into the right hind paw to inflame the paw. The rats were sacrificed at hour 4, at which time both hind paws were removed and individually weighed. The percent increase in the weight of the inflamed paw over that of the opposite non-inflamed paw was calculated.
In general terms: In the carrageenan paw model, swelling and tenderness develop within hours.

The subject of data set [3] is Adjuvant-induced Arthritis in Rat. The data set is described as follows: Adjuvant-induced Arthritis in rat. The data set is classed as in vivo, rat (female Hla:(SD) BR). Particulars: oral.
Data set [4] concerns Experimental Allergic Encephalomyelitis in Rat. Briefly: Experimental Allergic Encephalomyelitis in rat. In kind it is in vivo, rat (female LEW/Crl BR). Particulars: for Body Wt.: day 17. From the text:
3. Experimental allergic encephalomyelitis in the rat. […] A mixture of syngeneic spinal cord homogenate in Freund's Complete Adjuvant injected subcutaneously into the rat induces an […] response directed against the myelin covering the nerves of the central nervous system. […] These symptoms result from attack of immune cells on the nerves with subsequent destruction and loss of ability to transmit the nervous impulses necessary for controlling muscle function. […] This is consistent with the general immuno-suppressive effects of this drug. Corticosteroid treatment also prevents the appearance of paralytic symptoms, but the dose of corticosteroid required is such that the corticosteroid itself causes weight loss greater than that produced by the disease alone. In contrast to their action in Adjuvant-inducted Arthritis in the rat, aspirin-like drugs are completely ineffective in preventing the symptoms and weight loss of experimental allergic encephalomyelitis.
Experimental Allergic Encephalomyelitis in Rat
Method: Test for Inhibition of Experimental Allergic Encephalomyelitis Induced in Rats
Female LEW/Crl BR rats weighing 125-135 g were randomly assigned to treatment groups of ten animals. Experimental allergic encephalomyelitis was induced by injecting into the right hind paw of each animal 0.1 ml of an emulsion containing 15 mg (wet weight) of syngeneic spinal cord tissue, 0.06 ml of Freund's Incomplete Adjuvant (Difco), 0.04 ml of sterile 0.9% saline and 0.2 mg of heat-killed, dried Mycobacterium butyricum (Difco). Test materials prepared as solutions or suspensions in aqueous carboxymethyl cellulose vehicle were administered orally each day for 16 days, starting on the day of injection. Animals were individually identified and weighed on day one, and again on day 17.

For data set [5], the system named is Gastro-Intestinal Erosion in Rats. Particulars: background, in words; cited from earlier work.
The subject of data set [6] is Adjuvant-induced Arthritis in Rat. Particulars: daily administration of appropriate doses, background; cited from earlier work.
The subject of data set [7] is Experimental Allergic Encephalomyelitis in Rat. Particulars: daily treatment, background; cited from earlier work.
[8] abbreviates: oral dose 10 mg/kg, * = not significant.
Setting [9] is: oral dose 30 mg/kg, * = not significant.
The mark [10] stands for this setting: oral dose 100 mg/kg, * = not significant.
The mark [11] stands for this setting: oral 10 mg/kg daily for 16 days.
Setting [12] is: oral 50 mg/kg daily for 16 days.
[13] abbreviates: oral once daily for seven days, read-out: Minimum Dose causing G.I. Erosions.

Each structure is given as a SMILES string. Where two headings read alike, the source gives them in different places.

Data on eleven molecules can be found in patent US4873232A, “Novel use for carbamoyl benzoates” (Syntex, priority 1986, dated 1989).

The molecule `Cc1cccc(N)c1C(=O)O` [2-Amino-6-methylbenzoic acid, 2-amino-6-methyl-benzoic acid, reference compound] gave an NOAEL at 168 h in data set [1] (po) of more than 250 mg/kg/day. Also, the “Inhibition of Hind Paw Weight Increase” value in data set [2] (setting [8]) is 5; in data set [2] (setting [9]), 7; in data set [2] (setting [10]), 0. Moreover, the “Inhibition of Adjuvant Arthritis” value in data set [3] (at 50 mg/kg, n.s.) came out at 0%. Also, the “Body Wt.” value is listed as 153 ± 5.2 gm in data set [4] (oral 2 mg/kg daily for 16 days), 145 ± 4.1 gm in data set [4] (setting [11]) and 141 ± 4.0 gm in data set [4] (setting [12]).
In the case of `O=C(Nc1ccccc1C(=O)O)OCc1ccccc1` [2-Benzyloxycarbonyl-aminobenzoic acid, 2-benzyloxycarbonylaminobenzoic acid], the entries for the “Body Wt.” value in data set [4] (oral 2 mg/kg daily for 16 days) and in data set [4] (setting [11]) were 131 ± 3.6 gm and 141 ± 6.3 gm, respectively.
With `CCOC(=O)Nc1ccccc1C(=O)O` [2-Ethoxycarbonyl-aminobenzoic acid, 2-ethoxycarbonylaminobenzoic acid], the “Body Wt.” value in data set [4] (oral 2 mg/kg daily for 16 days) was 150 ± 4.2 gm; in data set [4] (setting [11]), 162 ± 3.4 gm; in data set [4] (setting [12]), 151 ± 4.4 gm.
As for `CCOC(=O)Nc1cccc(C)c1C(=O)O` [2-Ethoxycarbonylamino-6-methylbenzoic acid], the NOAEL at 168 h in data set [1] (setting [13]) is more than 100 mg/kg/day. Further, the “Inhibition of Hind Paw Weight Increase” value in data set [2] (setting [8]) was 9; in data set [2] (setting [9]), 13; in data set [2] (setting [10]) it was 12. Further, the “Inhibition of Adjuvant Arthritis” value in data set [3] (at 50 mg/kg, n.s.) is listed as 30%. Also, the “Body Wt.” value was determined as 164 ± 4.9 gm in data set [4] (oral 5 mg/kg daily for 16 days), 155 ± 3.7 gm in data set [4] (setting [11]) and 154 ± 6.0 gm in data set [4] (oral 25 mg/kg daily for 16 days).
Regarding `COc1cc(NC(=O)OCc2ccccc2)c(C(=O)O)cc1OC` [2-benzyloxycarbonylamino-4,5-dimethoxybenzoic acid], the “Body Wt.” value in data set [4] (oral 2 mg/kg daily for 16 days) was 142 ± 5.3 gm; in data set [4] (setting [11]), 144 ± 3.9 gm.
As to `Cc1cccc(NC(=O)OCc2ccccc2)c1C(=O)O` [2-benzyloxycarbonylamino-6-methylbenzoic acid], the “Inhibition of Hind Paw Weight Increase” value in data set [2] (setting [10]) amounted to 10. Besides, in data set [4] (setting [11]), the “Body Wt.” value was 146 ± 3.6 gm.
As for `CCOC(=O)Nc1cc(OC)c(OC)cc1C(=O)O` [2-ethoxycarbonylamino-4,5-dimethoxybenzoic acid], the NOAEL at 168 h in data set [1] (setting [13]) was more than 100 mg/kg/day. Further, the “Inhibition of Adjuvant Arthritis” value in data set [3] (at 50 mg/kg, n.s.) is given as 0%. In addition, the “Body Wt.” value is 157 ± 4.0 gm in data set [4] (oral 2 mg/kg daily for 16 days), 137 ± 5.7 gm in data set [4] (setting [11]) and 154 ± 5.8 gm in data set [4] (setting [12]).
In the case of `Cc1cccc(NC(=O)OCC(C)C)c1C(=O)O` [2-isobutoxycarbonylamino-6-methylbenzoic acid], in data set [1] (setting [13]), the NOAEL at 168 h was more than 100 mg/kg/day. Besides, in data set [2] (setting [10]), the “Inhibition of Hind Paw Weight Increase” value stood at 23. In addition, the “Inhibition of Adjuvant Arthritis” value in data set [3] (at 50 mg/kg, n.s.) stood at 0%.
`C[C@@H]1C[C@H]2[C@@H]3CCC4=CC(=O)C=C[C@]4(C)[C@@]3(F)[C@@H](O)C[C@]2(C)[C@@]1(O)C(=O)CO` [Dexamethasone, reference compound]: the “Inhibition of Hind Paw Weight Increase” value in data set [2] (oral dose 0.1 mg/kg) turned out to be 71. For the same molecule, the “Body Wt.” value in data set [4] (oral 0.25 mg/kg daily for 16 days) is 130 ± 0.4 gm. For the same molecule, in data set [4] (oral 0.25 mg/kg daily for 16 days, observed days 12-17), the “% Animals With Paralysis” value amounted to 0%.
Molecule `O=C(O)c1ccccc1Nc1cccc(C(F)(F)F)c1` [Flufenamic acid, reference compound] had an NOAEL at 168 h in data set [1] (po) of 35 mg/kg/day. Further, in data set [5], the “gastro-intestinal effects associated with aspirin-like drugs” value is “gastro-intestinal (ulcerogenic) effects”. The “Inhibition of Hind Paw Weight Increase” value worked out at 35 in data set [2] (setting [8]) and 52 in data set [2] (setting [10]). The “Inhibition of Adjuvant Arthritis” value in data set [3] (at 35 mg/kg) amounted to 80%. Also, the “Body Wt.” value in data set [4] (oral 30 mg/kg daily for 16 days) came to 135 ± 2.4 gm; in data set [4] (oral 100 mg/kg daily for 16 days) it was 128 ± 2.1 gm.
As to `O=P1(N(CCCl)CCCl)NCCCO1` (stereo not drawn) [cyclophosphamide], the “control of manifestations of Adjuvant-induced arthritis” value in data set [6] is on record as “effectively controlled”. Besides, the “effect on weight loss and paralysis in experimental allergic encephalomyelitis” value in data set [7] is “gives protection from the weight loss and paralysis”.
